Converted amounts (≈) assume the structure as drawn.
Columns and labels:
Glutamate racemase [1] = target: T1, Glutamate racemase (Helicobacter pylori (strain ATCC 700392 / 26695) (Campylobacterpylori), UniProt P56068); test: Binding affinity to Helicobacter pylori MurI by protein fluorescence binding assay
T1 sequence (P56068 whole entry): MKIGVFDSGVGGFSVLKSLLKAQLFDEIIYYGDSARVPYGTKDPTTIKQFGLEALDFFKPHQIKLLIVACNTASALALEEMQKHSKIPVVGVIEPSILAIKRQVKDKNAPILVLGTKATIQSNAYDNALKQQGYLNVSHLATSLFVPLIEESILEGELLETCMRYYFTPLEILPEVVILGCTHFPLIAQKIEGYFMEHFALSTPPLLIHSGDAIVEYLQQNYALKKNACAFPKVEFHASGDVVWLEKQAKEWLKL

[2] = Inhibition of MurI in Escherichia coli
Glutamate racemase [3] = target: T1, Glutamate racemase; test: Inhibition of Helicobacter pylori glutamate racemase
Glutamate racemase [4] = target: T2, Glutamate racemase (Streptococcus pneumoniae serotype 4 (strain ATCC BAA-334 / TIGR4), UniProt P63640); test: Inhibition of MurI in Streptococcus pneumoniae
T2 sequence (P63640 whole entry): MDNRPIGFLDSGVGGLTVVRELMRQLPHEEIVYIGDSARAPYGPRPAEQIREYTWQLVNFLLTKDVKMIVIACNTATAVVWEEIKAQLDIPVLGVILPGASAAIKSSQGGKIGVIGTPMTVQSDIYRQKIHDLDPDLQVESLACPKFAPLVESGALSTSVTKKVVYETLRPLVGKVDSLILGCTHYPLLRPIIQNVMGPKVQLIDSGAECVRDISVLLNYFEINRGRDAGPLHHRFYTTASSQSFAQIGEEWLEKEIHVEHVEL

Escherichia coli = test: Antimicrobial activity against Escherichia coli; format: functional
Streptococcus pneumoniae = test: Antimicrobial activity against Streptococcus pneumoniae; format: functional
Helicobacter pylori = test: Antimicrobial activity against Helicobacter pylori; format: functional
Staphylococcus aureus = test: Antimicrobial activity against Staphylococcus aureus; format: functional
[5] = Inhibition of MurI in Staphylococcus aureus
Glutamate racemase [6] = target: T1, Glutamate racemase; test: Binding affinity to Helicobacter pylori MurI by isothermal titration calorimetry
Glutamate racemase [7] = target: Glutamate racemase (Helicobacter pylori (strain ATCC 700392 / 26695) (Campylobacterpylori), UniProt P56068, E151K); test: Inhibition of Helicobacter pylori MurI E151K mutant
Glutamate racemase (Helicobacter pylori (strain ATCC 700392 / 26695) (Campylobacterpylori), UniProt P56068, E151K), sequence (P56068 whole entry E151K): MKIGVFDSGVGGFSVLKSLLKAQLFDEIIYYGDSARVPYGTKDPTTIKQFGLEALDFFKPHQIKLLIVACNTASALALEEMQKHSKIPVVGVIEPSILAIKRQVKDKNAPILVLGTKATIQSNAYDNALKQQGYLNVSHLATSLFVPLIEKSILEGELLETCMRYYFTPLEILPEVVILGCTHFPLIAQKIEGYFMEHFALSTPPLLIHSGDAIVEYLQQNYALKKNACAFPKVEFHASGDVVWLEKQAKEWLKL

Glutamate racemase [8] = target: Glutamate racemase (Helicobacter pylori (strain ATCC 700392 / 26695) (Campylobacterpylori), UniProt P56068, A75T); test: Inhibition of Helicobacter pylori MurI A75T mutant
Glutamate racemase (Helicobacter pylori (strain ATCC 700392 / 26695) (Campylobacterpylori), UniProt P56068, A75T), sequence (P56068 whole entry A75T): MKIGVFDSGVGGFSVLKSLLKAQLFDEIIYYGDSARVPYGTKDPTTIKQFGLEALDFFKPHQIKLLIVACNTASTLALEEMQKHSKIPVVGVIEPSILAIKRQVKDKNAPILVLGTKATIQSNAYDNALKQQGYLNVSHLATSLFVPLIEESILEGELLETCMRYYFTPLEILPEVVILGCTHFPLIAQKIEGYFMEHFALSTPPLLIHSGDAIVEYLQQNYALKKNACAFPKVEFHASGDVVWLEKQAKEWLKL

Structure (SMILES)	Kd (Glutamate racemase [1])	IC50 [2]	IC50 (Glutamate racemase [3])	IC50 (Glutamate racemase [4])	MIC (Escherichia coli)	MIC (Streptococcus pneumoniae)	MIC (Helicobacter pylori)	MIC (Staphylococcus aureus)	IC50 [5]	Kd (Glutamate racemase [6])	Ki (Glutamate racemase [7])	Ki (Glutamate racemase [3])	Ki (Glutamate racemase [8])
Cn1cc(C#N)cc1-c1c2c(=O)n(C)c(=O)n(CC3CC3)c2nn1Cc1ccnc2ccc(Cl)cc12	0.025 µM	> 400 µM	0.025 µM	> 400 µM	> 64 mg/L	> 64 mg/L	0.5 mg/L (≈ 1 µM)	> 64 mg/L	> 400 µM				
CC(C)Cn1c(=O)n(C)c(=O)c2c(-c3ccncc3)n(Cc3cccc4ccccc34)nc21	3.9 µM	> 400 µM	1.4 µM	> 400 µM	> 64 mg/L	> 64 mg/L	4 mg/L (≈ 9.1 µM)	> 64 mg/L	> 400 µM	2.9 µM			
N[C@H](CCC(=O)O)C(=O)O [D-GLUTAMATE]											> 100000 µM	5.8 µM	661 µM
